# Test results: patent US20260216328A1, “DISRUPTABLE LINKER COMPOSITIONS, SWITCHABLE BISPECIFIC T CELL NANOENGAGER (SWITCH-BITE) COMPOSITIONS COMPRISING THE SAME, AND METHODS OF USE THEREOF” (The Trustees of the University of Pennsylvania, priority 2023, published 2026)
# Tests used:
# [1] = test system: E0771-HER2 cells and primary mouse T cells; experiment: T cell-tumour cell engagement by confocal microscopy; assay type: cell-based
# Protocol: E0771-HER2 cells were labeled with CSFE-green and primary T cells were labelled with CFSE-red. The two cells were co-cultured and then treated with PBS or SiTE for 2 h. After that, the cells were observed by confocal imaging. T cell to T cell interactions and T cell to tumour cell interactions were counted manually by taking 10 images for quantification.
# After synthesis and characterization of the AMD-responsive SiTE, the ability of SiTE to induce tumour cell-T cell engagement and tumour cell lysis was tested (FIG. 11A). E0771-HER2 cells were incubated with primary mouse T cells at a 1:1 ratio. Cells were then treated with SiTEs at varying concentrations for 4 h and observed under confocal laser scanning microscopy (CLSM) (FIG. 11B). In the untreated control group, cancer cells and T cells were randomly distributed with few T cells and cancer cells engaged. However, in groups receiving 5 ng/mL of SiTE, ~10% of T cells were engaged with tumour cells, and this rate increased to ~90% when cells were treated with 20 ng/mL of SiTE. […] To ensure the specificity of this engagement. […] Since the SiTE contains >20 Fabs, it is possible that it may induce T cell-to-T cell engagement and induce cytokine release. […] After 24 h, mouse blood was collected and the T cell crosslinking levels and IL-6 and TNF-α levels were measured. […]
# E0771-HER2 tumour = E0771-HER2 tumour growth inhibition in C57/BL6 mice; assay type: in vivo, mouse; settings: following AMD infusion after SiTE
# Text: FIG. 20A: 106 E0771-HER2 cells were s.c. injected into the right flank of C57/BL6 mice. […] All mice were euthanized at day 23. FIG. 20B: images of mice from all treatment groups on day 23. FIG. 20C: tumour growth curves for different groups. Tumour tissue was isolated on Day 23 and observed for immune cell infiltration. FIG. 20D: repeat of the tumour growth inhibition experiment. FIG. 20E: mouse body weight change during the tumour inhibition experiment. FIG. 20F: percentages of CD45+, CD45+CD3+, CD45+CD3+CD4+/CD8+ cells in the tumour tissues. FIG. 20G: immunofluorescence images of the tumour tissues in different groups with cell nuclei labeled with DAPI (blue) and T cells labeled with anti-CD3 antibody (green). Scale bar: 100 μm.
# Tumour size and mouse weight were monitored.
# Minimal changes in mouse weight were observed across the different groups (FIG. 20E), likely because HER2 antigen is not expressed on normal mouse cells, preventing toxicity from on-target, off-tumour activity. At day 23, all mice were euthanized and tumour tissue was collected to determine total lymphocyte and CD3^+ T cell infiltration using flow cytometry and immunofluorescence imaging.
# Additionally, to confirm that this impact on the tumour tissue was HER2 specific, SiTE activity was evaluated in a HER2 negative E0771 tumour model (FIGS. 24A-24J).
# [2] = test system: Raji-Luc-GFP tumour cells; experiment: Cytokine release syndrome in humanized NSG-SGM3 mice with Raji-Luc-GFP tumour; assay type: in vivo, mouse; settings: 10 mg/kg AMD i.v., 24 h post-AMD
# Protocol: An in vivo imaging system (IVIS) was used to monitor tumour burden in vivo. […] FIGS. 41C-41E: Mouse body weight, temperature and survival curves, respectively. n=10 mice. […] The data in FIGS. 41C-41D and FIGS. 41F-41J were plotted as mean±s.d. (n=10) from three independent experiments. […] P value in FIG. 41E was determined using Log-rank (Mantel-Cox) test.
# SiTE and Blinatumomab were also compared with regard to treating symptoms of CRS and neurotoxicity. The humanized mouse model was constructed as before, but this time the piggybac transposon system was not used to express CD19 in the mouse livers. This allowed better analysis of the effects of the SiTE on CRS and neurotoxicity (FIG. 41A). Raji-Luc-GFP cells were i.v. injected at day −14. Blinatumomab, SiTE or PBS were i.v. injected to the mice at day one. Mouse tumour burden, body weight, temperature, and plasma cytokine levels were monitored (FIGS. 41B-41J).
# [3] = test system: Raji-Luc-GFP tumour cells; settings: AMD treatment group after SiTE
# Protocol: FIG. 42A: NSG-SGM3 mice were treated with Busulfan at day −50 to remove mouse bone marrow. At day −49, 10^5 human CD34^+ fetal liver cells were i.v. injected to let the mouse develop a human immune system. 10^6 Raji-Luc-GFP tumour cells were i.v. injected at day −14. At days 1, 3, and 5, PBS or SiTE was i.v. injected (in the PBS group, only PBS was injected to tumour-bearing mice). […] FIGS. 42B-42E: mouse body weight, temperature, IL-6 levels, and mouse survival curves, respectively. n=10 mice. The red stars in FIG. 42B indicate that mice were euthanized. FIG. 42F: measurements of IL-1 in mouse blood at different time points. n=10 mice. […] Brain H&E staining (FIG. 42I) and human CD68 immunohistochemistry (FIG. 42J) images of mice at day 35. The data in FIGS. 42B-42F were plotted as mean z s.d. (n=10) from three independent experiments.
# It was also evaluated if the SiTE can help control neurotoxicity. In the clinic, neurotoxicity is usually delayed and occurs several […] after CRS onset. Tumour-bearing mice were treated with SiTE at days 1, 3 and 5 (FIG. 42A). […] Rather than use a preventative strategy for treating CRS (FIGS. 40A-40M), here Tocilizumab was used to treat CRS when symptoms presented, so that it can be compared directly with the SiTE strategy. […] Studies have shown that IL-1 is the major cause of neurotoxicity.
structure (smiles),measurement,setting,value
"NC12CC3CC(CC(C3)C1)C2 [AMD, adamantan-1-amine]",separation of conjugated cells,[1]; 100 ng/mL AMD after 20 ng/mL SiTE for 4 h,~ 40%
same,separation of conjugated cells,[1]; 1 μg/mL AMD after 20 ng/mL SiTE for 4 h,~100%
same,number of T cells in the tumour tissue,E0771-HER2 tumour,greatly decreased
same,increased cytokine levels after AMD,[2],gradually recovered to within normal ranges
same,animal survival,[3],prolonged animal survival
